In the test the test system is CD2F1 mice, L1210 leukemia ip, survival T/C. Nature of the test: NCI In Vivo Anticancer Drug Screen. Data for tumor model L1210 Leukemia (intraperitoneal) in CD2F1 (CDF1) mice. The note with it: higher = longer survival. Summed up: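 Read-out first: treated-group measurement over vehicle-control measurement, expressed as a ratio. Animals bore a transplanted tumor line and were dosed with compound or vehicle.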

[1] abbreviates: endpoint: mean survival time, dose: 25.0 mg/kg/injection, schedule: Q01DX009 (ip), vehicle: other.
Where [2] appears, read: endpoint: mean survival time, dose: 50.0 mg/kg/injection, schedule: Q01DX009 (ip), vehicle: other.
Setting [3] is: endpoint: mean survival time, dose: 100.0 mg/kg/injection, schedule: Q01DX009 (ip), vehicle: other.
The mark [4] stands for this setting: endpoint: mean survival time, dose: 200.0 mg/kg/injection, schedule: Q01DX009 (ip), vehicle: other.
Where [5] appears, read: endpoint: mean survival time, dose: 100.0 mg/kg/injection, schedule: Q01DX001 (ip), vehicle: saline.
[6] abbreviates: endpoint: mean survival time, dose: 200.0 mg/kg/injection, schedule: Q01DX001 (ip), vehicle: saline.
[7] abbreviates: endpoint: mean survival time, dose: 400.0 mg/kg/injection, schedule: Q01DX001 (ip), vehicle: saline.
Setting [8] is: endpoint: mean survival time, dose: 100.0 mg/kg/injection, schedule: Q01DX009 (ip), vehicle: saline with Tween-80.

Several values for one entry are separate records, joined by “and”; a condition that tells them apart may be missing. Identical values can stand only once. Toxic doses and inconclusive results are not listed.

On to `Nc1nc(Cl)nc2c1ncn2C1CC(O)C(CO)O1` (configuration not stated), for which the T/C was 124 % of control (endpoint: median survival time, dose: 1.56 mg/kg/injection, schedule: Q01DX009 (ip), vehicle: Klucel (hydroxypropylcellulose) (HPC)); 172 % of control (endpoint: median survival time, dose: 7.5 mg/kg/injection, schedule: Q03HX009 (ip), vehicle: saline); 107 % of control (endpoint: median survival time, dose: 7.5 mg/kg/injection, schedule: Q03HX009 (ip), vehicle: suspension in saline); 735 % of control (endpoint: median survival time, dose: 10.0 mg/kg/injection, schedule: Q03HX024 (ip), vehicle: saline); 180 % of control (endpoint: median survival time, dose: 12.5 mg/kg/injection, schedule: Q01DX009 (ip), vehicle: Klucel (hydroxypropylcellulose) (HPC)); 168 % of control (endpoint: median survival time, dose: 15.0 mg/kg/injection, schedule: Q03HX009 (ip), vehicle: saline). The T/C reads like this: (endpoint: median survival time, dose: 15.0 mg/kg/injection, schedule: Q03HX009 (ip), vehicle: suspension in saline) 100 % of control; (endpoint: median survival time, dose: 15.0 mg/kg/injection, schedule: Q03HX024 (ip), vehicle: saline) 345 % of control; (endpoint: median survival time, dose: 20.0 mg/kg/injection, schedule: Q03HX024 (ip), vehicle: saline) 735 % of control; (endpoint: median survival time, dose: 25.0 mg/kg/injection, schedule: Q01DX009 (ip), vehicle: Klucel (hydroxypropylcellulose) (HPC)) 192 % of control; (endpoint: median survival time, dose: 30.0 mg/kg/injection, schedule: Q03HX009 (ip), vehicle: saline) 208 % of control; (endpoint: median survival time, dose: 30.0 mg/kg/injection, schedule: Q03HX009 (ip), vehicle: suspension in saline) 109 % of control. For the same compound, the T/C by setting is: (endpoint: median survival time, dose: 60.0 mg/kg/injection, schedule: Q03HX009 (ip), vehicle: saline) 204 % of control; (endpoint: median survival time, dose: 60.0 mg/kg/injection, schedule: Q03HX009 (ip), vehicle: suspension in saline) 109 % of control; (endpoint: median survival time, dose: 120.0 mg/kg/injection, schedule: Q03HX009 (ip), vehicle: suspension in saline) 113 % of control.
`CCCCCCCCCCCCCCCCNC(=O)C[N+](C)(C)Cc1ccccc1`: the T/C was 100 % of control (endpoint: mean survival time, dose: 5.0 mg/kg/injection, schedule: Q04DX003 (ip), vehicle: saline with Tween-80) and 101 % of control (endpoint: mean survival time, dose: 10.0 mg/kg/injection, schedule: Q04DX003 (ip), vehicle: saline with Tween-80).
Take `CC1(C)C(=O)C(Br)=Cc2ccccc21`: the T/C (endpoint: mean survival time, dose: 12.5 mg/kg/injection, schedule: Q01DX009 (ip), vehicle: other) is 105 % of control; the T/C under setting [1] was 100 % of control; the T/C under setting [2] was 111 % of control; the T/C under setting [3] is 108 % of control; the T/C under setting [4] was 105 % of control.
As for `Cc1cc(C(O)(C(=O)O)c2ccccc2)c(C)c(C)c1C` (configuration not stated), the T/C runs as follows: (endpoint: mean survival time, dose: 75.0 mg/kg/injection, schedule: Q01DX001 (ip), vehicle: other) 90 % of control; (endpoint: mean survival time, dose: 150.0 mg/kg/injection, schedule: Q01DX001 (ip), vehicle: other) 94 % of control; (endpoint: mean survival time, dose: 300.0 mg/kg/injection, schedule: Q01DX001 (ip), vehicle: other) 102 % of control.
On to `COc1ccc(C(=O)C2(O)Oc3ccccc3C2=O)cc1` (configuration not stated), for which the T/C (endpoint: mean survival time, dose: 50.0 mg/kg/injection, schedule: Q01DX001 (ip), vehicle: saline) was 98 % of control; the T/C under setting [5] is 98 % of control; the T/C under setting [6] was 98 % of control; the T/C under setting [7] was 117 % of control.
In the case of `O=C=Nc1ccc(N=Nc2ccccc2)cc1`, the T/C runs as follows: (endpoint: mean survival time, dose: 25.0 mg/kg/injection, schedule: Q01DX009 (ip), vehicle: saline with Tween-80) 89 % of control; (endpoint: mean survival time, dose: 50.0 mg/kg/injection, schedule: Q01DX009 (ip), vehicle: saline with Tween-80) 88 % of control; (endpoint: mean survival time, dose: 100.0 mg/kg/injection, schedule: Q01DX001 (ip), vehicle: saline with Tween-80) 95 % of control; under setting [8], 98 % of control; (endpoint: mean survival time, dose: 400.0 mg/kg/injection, schedule: Q01DX001 (ip), vehicle: saline with Tween-80) 90 % of control.
Consider `O=C1/C(=N/O)Cc2ccccc21`, for which, for the setting “endpoint: mean survival time, dose: 12.5 mg/kg/injection, schedule: Q01DX009 (ip), vehicle: saline with Tween-80”, the T/C is 97 % of control.
For the compound `CCCCCC(C)SC#N` (configuration not stated), the T/C under setting [8] was 97 % of control.
For `Nc1nc2c(c(=O)[nH]1)N=C(CCc1ccccc1)CO2`, the T/C was 91 % of control under setting [1], 93 % of control under setting [2], 87 % of control under setting [3] and 87 % of control under setting [4].
As for `COc1ccc2c(NCCCCCCCCNc3c4ccccc4nc4cc(OC)ccc34)c3ccccc3nc2c1`, the T/C was 116 % of control (endpoint: mean survival time, dose: 0.47 mg/kg/injection, schedule: Q01DX009 (ip), vehicle: distilled water + alcohol); 120 % of control and 112 % of control (endpoint: mean survival time, dose: 0.94 mg/kg/injection, schedule: Q01DX009 (ip), vehicle: distilled water + alcohol); 120 % of control (endpoint: mean survival time, dose: 1.87 mg/kg/injection, schedule: Q01DX009 (ip), vehicle: distilled water + alcohol); 113 % of control and 112 % of control (endpoint: mean survival time, dose: 1.88 mg/kg/injection, schedule: Q01DX009 (ip), vehicle: distilled water + alcohol); 120 % of control (endpoint: median survival time, dose: 0.5 mg/kg/injection, schedule: Q01DX009 (ip), vehicle: distilled water + alcohol); 118 % of control (endpoint: median survival time, dose: 1.0 mg/kg/injection, schedule: Q01DX009 (ip), vehicle: distilled water + alcohol). The T/C was 121 % of control (endpoint: median survival time, dose: 2.0 mg/kg/injection, schedule: Q01DX009 (ip), vehicle: distilled water + alcohol) and 124 % of control (endpoint: median survival time, dose: 4.0 mg/kg/injection, schedule: Q01DX009 (ip), vehicle: distilled water + alcohol).
`O=C(OC1C=CCC=C1)c1cc([N+](=O)[O-])cc([N+](=O)[O-])c1`: the T/C is, setting by setting: under setting [3], 101 % of control; under setting [4], 95 % of control; (endpoint: mean survival time, dose: 400.0 mg/kg/injection, schedule: Q01DX009 (ip), vehicle: other) 93 % of control.
On to `CC(=O)NC1CCCC(C)C1` (configuration not stated), for which the T/C (endpoint: mean survival time, dose: 100.0 mg/kg/injection, schedule: Q04DX003 (ip), vehicle: saline with Tween-80) was 96 % of control; the T/C (endpoint: mean survival time, dose: 200.0 mg/kg/injection, schedule: Q04DX003 (ip), vehicle: saline with Tween-80) was 96 % of control; the T/C (endpoint: mean survival time, dose: 400.0 mg/kg/injection, schedule: Q04DX003 (ip), vehicle: saline with Tween-80) was 96 % of control.
On to `COC(=O)C1=NNC(C(=O)OC)=NN1`, for which the T/C is 95 % of control (endpoint: mean survival time, dose: 12.5 mg/kg/injection, schedule: Q01DX009 (ip), vehicle: water); 95 % of control (endpoint: mean survival time, dose: 25.0 mg/kg/injection, schedule: Q01DX009 (ip), vehicle: water); 98 % of control (endpoint: mean survival time, dose: 50.0 mg/kg/injection, schedule: Q01DX009 (ip), vehicle: water); 105 % of control (endpoint: mean survival time, dose: 100.0 mg/kg/injection, schedule: Q01DX009 (ip), vehicle: water); 90 % of control (endpoint: mean survival time, dose: 200.0 mg/kg/injection, schedule: Q01DX009 (ip), vehicle: water).
For `O=C1OC(C(O)CO)C(O)=C1O` (configuration not stated), the T/C under setting [5] was 101 % of control; the T/C (endpoint: mean survival time, dose: 100.0 mg/kg/injection, schedule: Q01DX009 (ip), vehicle: saline) was 93 % of control and 108 % of control; the T/C (endpoint: mean survival time, dose: 100.0 mg/kg/injection, schedule: Q04DX002 (ip), vehicle: saline) is 109 % of control and 112 % of control; the T/C (endpoint: mean survival time, dose: 100.0 mg/kg/injection, schedule: Q04DX003 (ip), vehicle: saline) was 106 % of control; the T/C under setting [6] is 101 % of control; the T/C (endpoint: mean survival time, dose: 200.0 mg/kg/injection, schedule: Q01DX009 (ip), vehicle: saline) was 86 % of control and 102 % of control. The T/C by setting is: (endpoint: mean survival time, dose: 200.0 mg/kg/injection, schedule: Q04DX002 (ip), vehicle: saline) 97 % of control and 104 % of control; (endpoint: mean survival time, dose: 200.0 mg/kg/injection, schedule: Q04DX003 (ip), vehicle: saline) 98 % of control; under setting [7], 106 % of control; (endpoint: mean survival time, dose: 400.0 mg/kg/injection, schedule: Q01DX009 (ip), vehicle: saline) 89 % of control and 96 % of control; (endpoint: mean survival time, dose: 400.0 mg/kg/injection, schedule: Q04DX002 (ip), vehicle: saline) 96 % of control and 102 % of control; (endpoint: mean survival time, dose: 400.0 mg/kg/injection, schedule: Q04DX003 (ip), vehicle: saline) 98 % of control.
For `O=C(O)C(=O)O`, the T/C by setting is: under setting [6], 92 % of control; under setting [7], 97 % of control.
Regarding `CCC(c1ccc(OC)cc1)C(CC)c1ccc(O)c(CN2CCN(C)CC2)c1` (configuration not stated), the T/C under setting [8] is 102 % of control.
On to `CCN1/C(=C/C(C)=C/c2sc3ccccc3[n+]2CC)Sc2ccccc21`, for which the T/C (endpoint: mean survival time, dose: 5.0 mg/kg/injection, schedule: Q01DX001 (ip), vehicle: other) is 96 % of control; the T/C (endpoint: mean survival time, dose: 200.0 micrograms/kg/injection, schedule: Q04DX003 (ip), vehicle: Klucel (hydroxypropylcellulose) (HPC)) was 104 % of control; the T/C (endpoint: mean survival time, dose: 400.0 micrograms/kg/injection, schedule: Q04DX003 (ip), vehicle: Klucel (hydroxypropylcellulose) (HPC)) is 104 % of control.
